Among the test systems are K-562 leukemia; UACC-62 melanoma; HOP-62 NSCLC; HCT-15 colon; SNB-19 CNS; SK-MEL-5 melanoma; PC-3 prostate; HT29 colon; UACC-257 melanoma; MDA-N; NCI-H23 lung; SF-539 CNS; LOX IMVI melanoma; SR leukemia; NCI-H522 lung; HOP-92 NSCLC; SNB-75 CNS; U251 CNS; HL-60(TB) leukemia; OVCAR-3 ovarian.
What all share (experiment): NCI anticancer screen, dose series, 48 h

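Exposure lasted 48 hours, with cells grown in 96-well plates and compounds tested at five concentrations. The concentration for full growth arrest is given as TGI.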 A value given as a limit tells only on which side of the number the result lay.

`Cc1cccc(C)c1NC(=O)C(Cc1c[nH]c2ccccc12)NC(=O)OCc1ccccc1` (stereo unspecified): the TGI was over 100 µM with K-562 leukemia; 41.3 µM with UACC-62 melanoma; over 100 µM in the assay on HOP-62 NSCLC; over 100 µM with HCT-15 colon; 51.6 µM with SNB-19 CNS; 28.9 µM with SK-MEL-5 melanoma. For the same molecule, the TGI in the assay with PC-3 prostate worked out at 28.8 µM; with HT29 colon it was 68.7 µM; in the assay on UACC-257 melanoma, 34 µM; in the assay with MDA-N, 54.6 µM; in the assay on NCI-H23 lung it was 70.8 µM; in the assay with SF-539 CNS it was 41 µM. For the same molecule, the TGI in the assay on LOX IMVI melanoma stood at 53.8 µM; in the assay with SR leukemia, 85.7 µM; in the assay with NCI-H522 lung, 72.7 µM; with HOP-92 NSCLC, 62.4 µM; in the assay with SNB-75 CNS it was 48.2 µM; with U251 CNS it was 47.2 µM. The TGI was 44.3 µM in the assay on HL-60(TB) leukemia and 69.3 µM in the assay with OVCAR-3 ovarian.
Take `Oc1cc(Cl)cc2cccnc12`: the TGI in the assay on K-562 leukemia is 2.66 µM; in the assay on UACC-62 melanoma, 7.49 µM; in the assay with HOP-62 NSCLC, over 100 µM; in the assay on HCT-15 colon it was over 100 µM; with SNB-19 CNS it was over 100 µM; with SK-MEL-5 melanoma, 13.4 µM. Also, the TGI is over 100 µM in the assay with PC-3 prostate; 32.2 µM with HT29 colon; over 29.9 µM with UACC-257 melanoma; over 100 µM in the assay on MDA-N; 33.4 µM with NCI-H23 lung; over 67 µM with SF-539 CNS. Further, the TGI in the assay with LOX IMVI melanoma is 28 µM; with SR leukemia, 4.27 µM; in the assay on NCI-H522 lung, 5.32 µM; in the assay with HOP-92 NSCLC, over 100 µM; in the assay on SNB-75 CNS, over 100 µM; in the assay with U251 CNS, over 47.9 µM. Besides, the values for the TGI in the assay on HL-60(TB) leukemia and in the assay on OVCAR-3 ovarian were 0.727 µM and 3.18 µM, respectively.
Take `Cc1nc(C)c(N2CCN([N+](=O)[O-])CC2)c(=O)[nH]1`: the TGI with K-562 leukemia, with UACC-62 melanoma, in the assay with HOP-62 NSCLC, in the assay with HCT-15 colon, in the assay on SNB-19 CNS and in the assay with SK-MEL-5 melanoma was over 100 µM in each case. In addition, the TGI in the assay with PC-3 prostate, in the assay on HT29 colon, in the assay with UACC-257 melanoma, in the assay on MDA-N, with NCI-H23 lung and in the assay with SF-539 CNS was over 100 µM in each case. The TGI in the assay on LOX IMVI melanoma is over 100 µM; in the assay on SR leukemia, over 100 µM; with NCI-H522 lung, over 100 µM; in the assay with HOP-92 NSCLC, over 100 µM; in the assay with SNB-75 CNS it was 0.611 µM; in the assay with U251 CNS it was over 100 µM. The TGI in the assay on HL-60(TB) leukemia and with OVCAR-3 ovarian was over 100 µM throughout.
`O=C(O)CN1CCN2CCCCCN(CC1)CCN(CC(=O)O)CC2`: the TGI in the assay with K-562 leukemia, in the assay with UACC-62 melanoma, in the assay on HOP-62 NSCLC, with HCT-15 colon, with SNB-19 CNS and in the assay on SK-MEL-5 melanoma was over 100 µM throughout. Besides, the TGI in the assay with PC-3 prostate, in the assay with HT29 colon, in the assay on UACC-257 melanoma, in the assay with MDA-N, with SF-539 CNS and with LOX IMVI melanoma was over 100 µM throughout. Moreover, the TGI in the assay with SR leukemia was over 100 µM; in the assay on NCI-H522 lung it was over 100 µM; in the assay with HOP-92 NSCLC, over 100 µM; in the assay on SNB-75 CNS, 95.3 µM; in the assay on U251 CNS, over 100 µM; in the assay on HL-60(TB) leukemia, 33.4 µM. Besides, in the assay on OVCAR-3 ovarian, the TGI was over 100 µM.
`Cc1cc(/N=C/c2ccc(N(C)C)cc2)n(-c2ccccc2)n1`: the TGI in the assay on K-562 leukemia, in the assay on UACC-62 melanoma, with HOP-62 NSCLC, in the assay with HCT-15 colon, in the assay with SNB-19 CNS and in the assay on SK-MEL-5 melanoma was over 100 µM throughout. Also, the TGI in the assay on PC-3 prostate, in the assay on HT29 colon, with UACC-257 melanoma, in the assay on MDA-N, in the assay on NCI-H23 lung and with SF-539 CNS was over 100 µM throughout. In addition, the TGI with LOX IMVI melanoma, in the assay on SR leukemia, with NCI-H522 lung, in the assay on HOP-92 NSCLC, with SNB-75 CNS and in the assay on U251 CNS was over 100 µM each time. Further, the TGI with HL-60(TB) leukemia was over 100 µM; in the assay on OVCAR-3 ovarian, 82.4 µM.
For `O=C(O)CN1CCNCCN(CC(=O)O)CCN(CC(=O)O)CCNCC1`, the TGI in the assay with K-562 leukemia, in the assay on UACC-62 melanoma, in the assay with HOP-62 NSCLC, with HCT-15 colon, with SNB-19 CNS and in the assay with SK-MEL-5 melanoma was over 100 µM each time. Further, the TGI with PC-3 prostate, in the assay with HT29 colon, in the assay with UACC-257 melanoma, in the assay on MDA-N, in the assay on SF-539 CNS and with LOX IMVI melanoma was over 100 µM throughout. For the same molecule, the TGI with SR leukemia is over 100 µM; with NCI-H522 lung, over 100 µM; in the assay on HOP-92 NSCLC it was over 100 µM; in the assay with SNB-75 CNS it was over 100 µM; in the assay on U251 CNS, over 100 µM; in the assay on HL-60(TB) leukemia, 64.6 µM. This molecule had a TGI with OVCAR-3 ovarian of over 100 µM.
For the molecule `COC(C)(C)C1(O)CC[C@@H](C)CC1=O` (stereo partly specified), the TGI in the assay on UACC-62 melanoma, in the assay on HOP-62 NSCLC, in the assay on HCT-15 colon, in the assay with SNB-19 CNS, in the assay on SK-MEL-5 melanoma and in the assay with PC-3 prostate was over 100 µM in each case. Also, the TGI in the assay with HT29 colon, in the assay with UACC-257 melanoma, in the assay on MDA-N, in the assay with NCI-H23 lung, in the assay with SF-539 CNS and with SR leukemia was over 100 µM each time. In addition, the TGI in the assay on NCI-H522 lung, in the assay with HOP-92 NSCLC, in the assay with SNB-75 CNS, with U251 CNS, with HL-60(TB) leukemia and in the assay with OVCAR-3 ovarian was over 100 µM throughout.
